Results published in PMC11831592, “Repurposing Linezolid in Conjunction with Histone Deacetylase Inhibitor Access in the Realm of Glioblastoma Therapies” (Journal of Medicinal Chemistry, 2025).

Columns and labels:
GBM = system: GBM; design: method as in PMID 31505812; conditions: GBM patients, vs 12.7 months; cited from earlier work
[1] = system: PT#3-R TMZ-resistant GBM cell line; experiment: cells; type: cell-based; conditions: MTT; for IC50: Homo sapiens, 72 h
Protocol: The cytotoxic effects of these compounds were assessed using the MTT assay (Table 1 and Supporting Information IV).
MTT assay was employed to evaluate the cytotoxicity of the synthesized compound against resistant GBM cells. The MTT (3-(4,5-dimethylthiazol-2-yl)-2,5-diphenyltetrazolium bromide, catalog no. AM0818-0005) powder was purchased from BIONOVAS (Ontario, Canada). The MTT was prepared at 10 mg/mL stock with ultrapure water and then stored at −20 °C. […] Before the experiment, the MTT stock was 10-fold diluted with the culture medium and then incubated with cells for 30 min. After the incubation, the MTT medium was discarded and added 300 μL of dimethyl sulfoxide (DMSO, cat. no. D2650, Sigma-Aldrich, MO, USA) to dissolve the cells.

HDAC1 = target: T1, HDAC1 (Homo sapiens, UniProt Q13547); experiment: HDAC enzyme inhibition assay, HDAC1; type: biochemical; conditions: 10-dose, 3-fold serial dilution starting at 10 μM
T1 construct: purchased Reaction Biology Corporation, Malvern, PA (contract assay service)
Protocol: (§1) Enzyme inhibition assays were performed by the Reaction Biology Corporation, Malvern, PA (http://www.reactionbiology.com).

HDAC2 = target: T2, HDAC2 (Homo sapiens, UniProt Q92769); experiment: HDAC enzyme inhibition assay, HDAC2; type: biochemical; conditions: 10-dose, 3-fold serial dilution starting at 10 μM
T2 construct: purchased Reaction Biology Corporation, Malvern, PA (contract assay service)
Protocol: as §1

HDAC6 = target: T3, HDAC6 (Homo sapiens, UniProt Q9UBN7); experiment: HDAC enzyme inhibition assay, HDAC6; type: biochemical; conditions: 10-dose, 3-fold serial dilution starting at 10 μM
T3 construct: purchased Reaction Biology Corporation, Malvern, PA (contract assay service)
T3 sequence (Q9UBN7 1-1215): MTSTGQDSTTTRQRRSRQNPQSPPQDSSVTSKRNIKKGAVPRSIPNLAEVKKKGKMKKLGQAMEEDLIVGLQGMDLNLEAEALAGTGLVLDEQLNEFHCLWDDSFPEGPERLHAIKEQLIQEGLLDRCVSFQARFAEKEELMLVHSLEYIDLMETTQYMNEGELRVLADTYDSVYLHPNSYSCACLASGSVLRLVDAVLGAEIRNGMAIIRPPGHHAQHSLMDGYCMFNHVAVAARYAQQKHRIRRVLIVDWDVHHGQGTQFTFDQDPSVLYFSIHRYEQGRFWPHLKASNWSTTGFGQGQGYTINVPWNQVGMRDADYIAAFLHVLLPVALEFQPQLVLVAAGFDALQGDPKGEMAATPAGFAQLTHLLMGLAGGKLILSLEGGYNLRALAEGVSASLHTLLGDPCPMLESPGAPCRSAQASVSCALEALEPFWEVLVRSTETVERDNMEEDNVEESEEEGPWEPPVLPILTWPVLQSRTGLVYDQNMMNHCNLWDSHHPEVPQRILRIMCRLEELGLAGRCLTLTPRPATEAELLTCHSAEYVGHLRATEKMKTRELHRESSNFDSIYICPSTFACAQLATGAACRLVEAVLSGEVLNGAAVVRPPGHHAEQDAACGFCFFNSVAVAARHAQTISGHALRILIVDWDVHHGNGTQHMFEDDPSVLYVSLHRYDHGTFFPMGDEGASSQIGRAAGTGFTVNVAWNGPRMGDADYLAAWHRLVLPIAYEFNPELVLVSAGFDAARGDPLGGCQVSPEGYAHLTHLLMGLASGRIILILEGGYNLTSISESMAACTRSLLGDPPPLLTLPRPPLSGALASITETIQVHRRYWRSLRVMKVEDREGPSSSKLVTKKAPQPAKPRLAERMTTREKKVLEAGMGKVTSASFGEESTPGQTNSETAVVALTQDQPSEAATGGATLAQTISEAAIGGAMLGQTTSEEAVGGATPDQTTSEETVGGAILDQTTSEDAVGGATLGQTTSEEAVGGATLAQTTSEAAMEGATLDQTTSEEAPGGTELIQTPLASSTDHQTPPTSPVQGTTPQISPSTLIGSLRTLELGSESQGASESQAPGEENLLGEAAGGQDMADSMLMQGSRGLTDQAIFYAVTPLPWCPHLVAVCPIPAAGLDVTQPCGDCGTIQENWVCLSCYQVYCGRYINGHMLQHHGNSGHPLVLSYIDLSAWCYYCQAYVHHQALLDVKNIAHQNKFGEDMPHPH
Protocol: as §1

HDAC8 = target: T4, HDAC8 (Homo sapiens, UniProt Q9BY41); experiment: HDAC enzyme inhibition assay, HDAC8; type: biochemical; conditions: 10-dose, 3-fold serial dilution starting at 10 μM
T4 construct: purchased Reaction Biology Corporation, Malvern, PA (contract assay service)
T4 sequence (Q9BY41 1-377): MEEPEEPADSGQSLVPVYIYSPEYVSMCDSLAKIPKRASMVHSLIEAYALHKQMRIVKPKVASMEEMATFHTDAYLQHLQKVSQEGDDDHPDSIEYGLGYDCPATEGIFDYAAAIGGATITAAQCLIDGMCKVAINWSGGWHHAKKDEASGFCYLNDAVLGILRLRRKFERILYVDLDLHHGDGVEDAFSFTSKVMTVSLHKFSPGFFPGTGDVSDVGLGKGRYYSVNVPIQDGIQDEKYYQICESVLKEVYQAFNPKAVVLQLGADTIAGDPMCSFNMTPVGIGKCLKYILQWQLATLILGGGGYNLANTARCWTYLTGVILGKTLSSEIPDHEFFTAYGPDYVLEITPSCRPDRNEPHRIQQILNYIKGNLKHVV
Protocol: as §1

[2] = system: A172-R TMZ-resistant GBM cell line; experiment: MTT cytotoxicity assay, A172-R; type: cell-based; conditions: Homo sapiens, 72 h
Protocol: (§2) We utilized linezolid as the structural foundation to confirm the cytotoxicity of linezolid-conjugated functional domains against glioblastoma (GBM). We combined it with the binding structures of anti-histone deacetylases (HDACs) (denoted as compounds 1–5 and 11–14), antitubulin (compound 6), anticyclooxygenase (COX) (compound 7), and anti-heat shock protein 90 (Hsp90) (compounds 8–10). These constructs were then administered to TMZ-resistant GBM cell lines A172R and PT#3R at concentrations ranging from 0 to 80 μM over 72 h. The cytotoxic effects of these compounds were assessed using the MTT assay (Table 1 and Supporting Information IV). […] Given the remarkable cytotoxicity of compound 1 on both A172-R and PT#3-R TMZ-resistant cells, this study subsequently focused on compound 1 for further in-depth investigation and mechanistic exploration. To validate that the cytotoxic effect of compound 1 on GBM is not attributed to linezolid alone, we separately treated the TMZ-resistant GBM cell line PT#3-R with compound 1 and linezolid. […] This confirms that the cytotoxicity of compound 1 against GBM is primarily attributable to the inhibitory structure of linezolid-conjugated HDAC (Figure 2A). Furthermore, we compared the cytotoxic effects of compound 1 on various wild-type brain tumor cell lines, including U87MG, PT#3, LN229 GBM cells, and CT-2A mouse astrocyte cell line as well as TMZ-resistant variants cell lines, including U87MG-R, PT#3-R, CT-2A-R, and T98G (MGMT-positive). […] Additionally, we further confirmed the efficacy of compound 1 in GBM treatment.
MTT assay was employed to evaluate the cytotoxicity of the synthesized compound against resistant GBM cells. The MTT (3-(4,5-dimethylthiazol-2-yl)-2,5-diphenyltetrazolium bromide, catalog no. AM0818-0005) powder was purchased from BIONOVAS (Ontario, Canada). The MTT was prepared at 10 mg/mL stock with ultrapure water and then stored at −20 °C. All cells were seeded 2.5 × 10^4 per well in the 24-well plate for 24 h, followed by treating at different concentrations of compounds for 72 h. Before the experiment, the MTT stock was 10-fold diluted with the culture medium and then incubated with cells for 30 min. After the incubation, the MTT medium was discarded and added 300 μL of dimethyl sulfoxide (DMSO, cat. no. D2650, Sigma-Aldrich, MO, USA) to dissolve the cells. Finally, 100 μL of the mixture was transferred to measure the OD 595 nm absorbance.

[3] = system: TMZ-resistant GBM cell lines A172R and PT#3R; experiment: MTT cytotoxicity assay, TMZ-resistant GBM lines (statement in words); type: cell-based; conditions: 0 to 80 μM, 72 h
Protocol: as §2
MTT assay was employed to evaluate the cytotoxicity of the synthesized compound against resistant GBM cells. The MTT (3-(4,5-dimethylthiazol-2-yl)-2,5-diphenyltetrazolium bromide, catalog no. AM0818-0005) powder was purchased from BIONOVAS (Ontario, Canada). The MTT was prepared at 10 mg/mL stock with ultrapure water and then stored at −20 °C. […] Finally, 100 μL of the mixture was transferred to measure the OD 595 nm absorbance.

[4] = design: method as in PMID 36921275; conditions: meningitis patients; cited from earlier work
[5] = within 5–7 h; cited from earlier work

T1 sequence (Q13547 whole entry): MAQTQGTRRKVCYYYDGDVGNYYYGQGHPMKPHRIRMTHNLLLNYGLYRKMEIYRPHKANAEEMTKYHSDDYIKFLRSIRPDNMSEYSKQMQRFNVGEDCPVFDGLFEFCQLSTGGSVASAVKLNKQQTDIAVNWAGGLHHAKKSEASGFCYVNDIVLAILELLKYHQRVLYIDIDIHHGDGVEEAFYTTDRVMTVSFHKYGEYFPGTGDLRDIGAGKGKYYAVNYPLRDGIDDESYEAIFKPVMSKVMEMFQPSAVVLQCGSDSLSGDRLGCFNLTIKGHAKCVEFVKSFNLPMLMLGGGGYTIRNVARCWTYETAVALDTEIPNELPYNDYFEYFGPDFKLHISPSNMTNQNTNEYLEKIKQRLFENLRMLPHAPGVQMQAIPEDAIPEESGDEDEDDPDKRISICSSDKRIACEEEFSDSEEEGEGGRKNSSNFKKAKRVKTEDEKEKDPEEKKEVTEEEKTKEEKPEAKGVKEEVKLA
T2 sequence (Q92769 whole entry): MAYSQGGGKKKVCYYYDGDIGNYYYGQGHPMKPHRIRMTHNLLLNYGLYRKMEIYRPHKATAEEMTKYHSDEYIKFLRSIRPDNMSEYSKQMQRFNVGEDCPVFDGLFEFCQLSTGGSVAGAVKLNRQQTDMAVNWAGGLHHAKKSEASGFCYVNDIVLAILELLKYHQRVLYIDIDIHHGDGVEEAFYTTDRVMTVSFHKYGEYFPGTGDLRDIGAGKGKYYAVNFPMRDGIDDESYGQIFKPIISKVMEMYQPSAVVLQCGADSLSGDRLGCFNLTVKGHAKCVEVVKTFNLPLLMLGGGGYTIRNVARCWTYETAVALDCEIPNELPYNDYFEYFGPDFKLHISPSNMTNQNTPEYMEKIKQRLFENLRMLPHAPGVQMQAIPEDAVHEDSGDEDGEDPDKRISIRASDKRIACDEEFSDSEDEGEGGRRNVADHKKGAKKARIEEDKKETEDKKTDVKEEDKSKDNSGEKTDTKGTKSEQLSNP

SMILES | IC50 [1] [µM] | IC50 (HDAC1) [µM] | IC50 (HDAC2) [µM] | IC50 (HDAC6) [µM] | IC50 (HDAC8) [µM] | IC50 [2] [µM] | also measured
Cn1nnc2c(C(N)=O)ncn2c1=O [TMZ, temozolomide] | – | – | – | – | – | – | overall survival (GBM): 21.7 months
O=C(CCCCCCC(=O)NC[C@H]1CN(c2ccc(N3CCOCC3)c(F)c2)C(=O)O1)NO [compound 2, (S)-N1-((3-(3-Fluoro-4-morpholinophenyl)-2-oxooxazolidin-5-yl)methyl)-N8-hydroxyoctanediamide] | 164 ± 41.5 | 3.37 | 6.43 | 0.304 | 1.11 | – | –
O=C(NO)c1ccc(CNC[C@H]2CN(c3ccc(N4CCOCC4)c(F)c3)C(=O)O2)cc1 [compound 3, (S)-4-((((3-(3-Fluoro-4-morpholinophenyl)-2-oxooxazolidin-5-yl)methyl)amin-o)methyl)-N-hydroxybenzamide] | 114 ± 20.8 | > 10 | > 10 | 0.061 | 0.938 | – | –
Nc1ccccc1NC(=O)c1ccc(CNC[C@H]2CN(c3ccc(N4CCOCC4)c(F)c3)C(=O)O2)cc1 [compound 4, (S)-N-(2-Aminophenyl)-4-((((3-(3-fluoro-4-morpholinophenyl)-2-oxooxazolidin-5-yl)methyl)amino)methyl)benzamide] | 41.4 ± 5.01 | 0.979 | 2.02 | – | – | 19 ± 2.53 | cytotoxicity in TMZ-resistant GBM [3]: exhibited the capacity to induce cytotoxicity
O=C(/C=C/c1cccc(S(=O)(=O)NC[C@H]2CN(c3ccc(N4CCOCC4)c(F)c3)C(=O)O2)c1)NO [compound 5, (R,E)-3-(3-(N-((3-(3-Fluoro-4-morpholinophenyl)-2-oxooxazolidin-5-yl)methyl)su-lfamoyl)phenyl)-N-hydroxyacrylamide] | 124 ± 17.5 | 0.735 | 1.66 | 0.095 | 0.803 | – | –
O=C(NC[C@H]1CN(c2ccc(N3CCOCC3)c(F)c2)C(=O)O1)c1cc(Cl)ccc1O [compound 7, (S)-5-Chloro-N-((3-(3-fluoro-4-morpholinophenyl)-2-oxooxazolidin-5-yl)methyl)-2-hydroxybenzamide] | 52.1 ± 6.26 | – | – | – | – | 224 ± 80.3 | –
CC(C)c1cc(C(=O)NC[C@H]2CN(c3ccc(N4CCOCC4)c(F)c3)C(=O)O2)c(O)cc1O [compound 8, (S)-N-((3-(3-Fluoro-4-morpholinophenyl)-2-oxooxazolidin-5-yl)methyl)-2,4-dihydroxy-5-isopropylbenzamide] | 58 ± 6.23 | – | – | – | – | 65.2 ± 11.2 | –
CC(C)c1cc(C(=O)N(C)C[C@H]2CN(c3ccc(N4CCOCC4)c(F)c3)C(=O)O2)c(O)cc1O [compound 9, (S)-N-((3-(3-Fluoro-4-morpholinophenyl)-2-oxooxazolidin-5-yl)methyl)-2,4-dihydroxy-5-isopropyl-N-methylbenzamide] | 15.3 ± 2.1 | – | – | – | – | 35.6 ± 4.64 | cytotoxicity in TMZ-resistant GBM [3]: exhibited the capacity to induce cytotoxicity
CCN(C[C@H]1CN(c2ccc(N3CCOCC3)c(F)c2)C(=O)O1)C(=O)c1cc(C(C)C)c(O)cc1O [compound 10, (S)-N-((3-(3-Fluoro-4-morpholinophenyl)-2-oxooxazolidin-5-yl)methyl)-2,4-dihydroxy-5-isopropyl-N-ethylbenzamide] | 48.8 ± 4.77 | – | – | – | – | 80.6 ± 9.99 | –
CC(=O)NC[C@H]1CN(c2ccc(N3CCOCC3)c(F)c2)C(=O)O1 [linezolid, (S)-N-((3-(3-Fluoro-4-morpholinophenyl)-2-oxooxazolidin-5-yl)methyl)acetamide] | – | – | – | – | – | – | cytotoxicity in resistant GBM cells ([1]; 80 to 100 μM): did not induce cytotoxicity; penetration between blood and cerebrospinal fluid [4]: more than 70%; excreted in its original form in urine [5]: 30%
